In ChEMBL document CHEMBL5303573, “Mapping human microbiome drug metabolism by gut bacteria and their genes” (Nature, 2019):

How the values were obtained:
[1] = The drug is tested on Bifidobacterium longum subsp. Infantis strain: CCUG52486 for biotransformation. The drug concentrations were measured before and after a 12-h incubation by liquid-chromatography-coupled mass spectrometry (LC–MS); details: 2 µM
[2] = segatella copri, 12 h, 2 µM
Description: The drug is tested on Prevotella copri strain: DSM18205 for biotransformation. The drug concentrations were measured before and after a 12-h incubation by liquid-chromatography-coupled mass spectrometry (LC–MS)

[3] = The drug is tested on Coprococcus comes strain: ATCC27758 for biotransformation. The drug concentrations were measured before and after a 12-h incubation by liquid-chromatography-coupled mass spectrometry (LC–MS); format: ADME; set-up: dose 2 uM, timepoint 0 vs 12 hours; details: 2 µM
[4] = parabacteroides distasonis, 12 h, 2 µM
Description: The drug is tested on Parabacteroides distasonis strain: ATCC8503 for biotransformation. The drug concentrations were measured before and after a 12-h incubation by liquid-chromatography-coupled mass spectrometry (LC–MS)

[5] = The drug is tested on Eubacterium rectale strain: ATCC33656 for biotransformation. The drug concentrations were measured before and after a 12-h incubation by liquid-chromatography-coupled mass spectrometry (LC–MS); details: agathobacter rectalis, 2 µM
[6] = The drug is tested on Anaerotruncus colihominis strain: DSM17241 for biotransformation. The drug concentrations were measured before and after a 12-h incubation by liquid-chromatography-coupled mass spectrometry (LC–MS); details: 2 µM
[7] = The drug is tested on Bacteroides pectinophilus strain: ATCC43243 for biotransformation. The drug concentrations were measured before and after a 12-h incubation by liquid-chromatography-coupled mass spectrometry (LC–MS); details: 2 µM
[8] = bifidobacterium adolescentis, 12 h, 2 µM
Description: The drug is tested on Bifidobacterium adolescentis strain: ATCC 15703 for biotransformation. The drug concentrations were measured before and after a 12-h incubation by liquid-chromatography-coupled mass spectrometry (LC–MS)

[9] = bacteroides eggerthii, 12 h, 2 µM
Description: The drug is tested on Bacteroides eggerthii strain: DSM20697 for biotransformation. The drug concentrations were measured before and after a 12-h incubation by liquid-chromatography-coupled mass spectrometry (LC–MS)

[10] = enterocloster bolteae, 12 h, 2 µM
Description: The drug is tested on Clostridium bolteae strain: ATCCBAA-613 for biotransformation. The drug concentrations were measured before and after a 12-h incubation by liquid-chromatography-coupled mass spectrometry (LC–MS)

[11] = The drug is tested on Eubacterium hallii strain: DSM3353 for biotransformation. The drug concentrations were measured before and after a 12-h incubation by liquid-chromatography-coupled mass spectrometry (LC–MS); details: anaerobutyricum hallii, 2 µM
[12] = The drug is tested on Clostridium asparagiforme strain: DSM15981 for biotransformation. The drug concentrations were measured before and after a 12-h incubation by liquid-chromatography-coupled mass spectrometry (LC–MS); format: ADME; set-up: dose 2 uM, timepoint 0 vs 12 hours; details: enterocloster asparagiformis, 2 µM
[13] = bacteroides intestinalis, 12 h, 2 µM
Description: The drug is tested on Bacteroides intestinalis strain: DSM17393 for biotransformation. The drug concentrations were measured before and after a 12-h incubation by liquid-chromatography-coupled mass spectrometry (LC–MS)

[14] = The drug is tested on Clostridium sp. strain: fecal isolate for biotransformation. The drug concentrations were measured before and after a 12-h incubation by liquid-chromatography-coupled mass spectrometry (LC–MS); details: 2 µM
[15] = akkermansia muciniphila, 12 h, 2 µM
Description: The drug is tested on Akkermansia muciniphila strain: ATCC BAA-835 for biotransformation. The drug concentrations were measured before and after a 12-h incubation by liquid-chromatography-coupled mass spectrometry (LC–MS)

[16] = The drug is tested on Bacteroides uniformis strain: ATCC8492 for biotransformation. The drug concentrations were measured before and after a 12-h incubation by liquid-chromatography-coupled mass spectrometry (LC–MS); details: 2 µM
[17] = The drug is tested on Bifidobacterium ruminantium strain: fecal isolate for biotransformation. The drug concentrations were measured before and after a 12-h incubation by liquid-chromatography-coupled mass spectrometry (LC–MS); details: 2 µM
[18] = The drug is tested on Providencia rettgeri strain: DSM1131 for biotransformation. The drug concentrations were measured before and after a 12-h incubation by liquid-chromatography-coupled mass spectrometry (LC–MS); format: ADME; set-up: dose 2 uM, timepoint 0 vs 12 hours; details: 2 µM
[19] = roseburia intestinalis, 12 h, 2 µM
Description: The drug is tested on Roseburia intestinalis strain: L1-82 for biotransformation. The drug concentrations were measured before and after a 12-h incubation by liquid-chromatography-coupled mass spectrometry (LC–MS)

[20] = The drug is tested on Providencia stuartii strain: ATCC25827 for biotransformation. The drug concentrations were measured before and after a 12-h incubation by liquid-chromatography-coupled mass spectrometry (LC–MS); details: 2 µM

Compound | Bacterial Biotransformation [1] | Bacterial Biotransformation [2] | Bacterial Biotransformation [3] | Bacterial Biotransformation [4] | Bacterial Biotransformation [5] | Bacterial Biotransformation [6] | Bacterial Biotransformation [7] | Bacterial Biotransformation [8] | Bacterial Biotransformation [9] | Bacterial Biotransformation [10] | Bacterial Biotransformation [11] | Bacterial Biotransformation [12] | Bacterial Biotransformation [13] | Bacterial Biotransformation [14] | Bacterial Biotransformation [15] | Bacterial Biotransformation [16] | Bacterial Biotransformation [17] | Bacterial Biotransformation [18] | Bacterial Biotransformation [19] | Bacterial Biotransformation [20]
O=c1[nH]c2ccccc2n1C1CCN(CCCC(c2ccc(F)cc2)c2ccc(F)cc2)CC1 [PIMOZIDE] | Compound NOT metabolized | Compound NOT metabolized | Compound NOT metabolized | Compound metabolized | Compound NOT metabolized | Compound metabolized | Compound NOT metabolized | Compound NOT metabolized | Compound NOT metabolized | Compound NOT metabolized | Compound NOT metabolized | Compound NOT metabolized | Compound NOT metabolized | Compound NOT metabolized | Compound NOT metabolized | Compound NOT metabolized | Compound NOT metabolized | Compound NOT metabolized | Compound NOT metabolized | Compound NOT metabolized
C[C@]12C=CC(=O)C=C1CC[C@@H]1[C@@H]2C(=O)C[C@@]2(C)[C@H]1CC[C@]2(O)C(=O)CO [PREDNISONE] | Compound NOT metabolized | Compound NOT metabolized | Compound NOT metabolized | Compound NOT metabolized | Compound NOT metabolized | Compound NOT metabolized | Compound NOT metabolized | Compound NOT metabolized | Compound NOT metabolized | Compound NOT metabolized | Compound NOT metabolized | Compound NOT metabolized | Compound NOT metabolized | Compound NOT metabolized | Compound NOT metabolized | Compound NOT metabolized | Compound NOT metabolized | Compound NOT metabolized | Compound NOT metabolized | Compound NOT metabolized
O=C(O)CCC(=O)O.O=C(O[C@H]1CN2CCC1CC2)N1CCc2ccccc2[C@@H]1c1ccccc1 [SOLIFENACIN SUCCINATE] | Compound NOT metabolized | Compound NOT metabolized | Compound NOT metabolized | Compound NOT metabolized | Compound NOT metabolized | Compound NOT metabolized | Compound NOT metabolized | Compound NOT metabolized | Compound NOT metabolized | Compound NOT metabolized | Compound NOT metabolized | Compound NOT metabolized | Compound NOT metabolized | Compound NOT metabolized | Compound NOT metabolized | Compound NOT metabolized | Compound NOT metabolized | Compound NOT metabolized | Compound NOT metabolized | Compound NOT metabolized
C=CC[C@@H]1/C=C(\C)C[C@H](C)C[C@H](OC)[C@H]2O[C@@](O)(C(=O)C(=O)N3CCCC[C@H]3C(=O)O[C@H](/C(C)=C/[C@@H]3CC[C@@H](O)[C@H](OC)C3)[C@H](C)[C@@H](O)CC1=O)[C@H](C)C[C@@H]2OC.O [TACROLIMUS] | Compound NOT metabolized | Compound NOT metabolized | Compound metabolized | Compound metabolized | Compound metabolized | Compound metabolized | Compound NOT metabolized | Compound NOT metabolized | Compound metabolized | Compound metabolized | Compound metabolized | Compound metabolized | Compound metabolized | Compound metabolized | Compound metabolized | Compound metabolized | Compound NOT metabolized | Compound metabolized | Compound metabolized | Compound NOT metabolized
CN(C/C=C/C#CC(C)(C)C)Cc1cccc2ccccc12 [TERBINAFINE] | Compound NOT metabolized | Compound NOT metabolized | Compound NOT metabolized | Compound NOT metabolized | Compound NOT metabolized | Compound NOT metabolized | Compound NOT metabolized | Compound NOT metabolized | Compound NOT metabolized | Compound NOT metabolized | Compound NOT metabolized | Compound NOT metabolized | Compound NOT metabolized | Compound NOT metabolized | Compound NOT metabolized | Compound NOT metabolized | Compound NOT metabolized | Compound NOT metabolized | Compound NOT metabolized | Compound NOT metabolized
COc1ccc(CN2CCNCC2)c(OC)c1OC.Cl.Cl [TRIMETAZIDINE DIHYDROCHLORIDE] | Compound metabolized | Compound NOT metabolized | Compound NOT metabolized | Compound metabolized | Compound NOT metabolized | Compound NOT metabolized | Compound NOT metabolized | Compound NOT metabolized | Compound NOT metabolized | Compound NOT metabolized | Compound NOT metabolized | Compound metabolized | Compound metabolized | Compound NOT metabolized | Compound NOT metabolized | Compound metabolized | Compound NOT metabolized | Compound metabolized | Compound NOT metabolized | Compound NOT metabolized
CN1[C@@H]2CC[C@H]1C[C@@H](OC(=O)c1c[nH]c3ccccc13)C2 [TROPISETRON] | Compound NOT metabolized | Compound NOT metabolized | Compound NOT metabolized | Compound NOT metabolized | Compound NOT metabolized | Compound NOT metabolized | Compound NOT metabolized | Compound NOT metabolized | Compound NOT metabolized | Compound NOT metabolized | Compound NOT metabolized | Compound NOT metabolized | Compound NOT metabolized | Compound NOT metabolized | Compound NOT metabolized | Compound NOT metabolized | Compound NOT metabolized | Compound NOT metabolized | Compound NOT metabolized | Compound NOT metabolized
